Assay results reported in patent US6316424A, “Sulfated phosphatidylinositols, their preparation and use of the same” (The Board of Trustees of the University of Illinois, priority 2000, dated 2001).
Counter-ions that a name gives are not always drawn.

How the values were obtained:
[1] = Surface tension / critical micelle concentration (Fisher Scientific Surface Tensiometer); format: physicochemical
Description: The surface activity of SPI also was determined. In this test, dilutions of SPI were prepared and the surface tension of each solution measured using a Fisher Scientific Surface Tensiometer. The critical micelle concentration (CMC) of SPI was estimated as the minimum concentration at which the surface tension remains constant. For SPI, the CMC is about 0.10 mg/mL. […] Accordingly, the addition of sulfate groups to PI alters its aqueous behavior, shifting the tendency of the phospholipid from forming vesicles to forming micelles.

HIV-1 virus = test: In vitro anti-HIV activity, XTT/formazan cell viability protection (NCI, method of Gustafson et al.); format: cell-based, HIV-1 (human lymphoblastoid cells); settings: Human immunodeficiency virus 1, 168 h; Table 3; 7 days; PSL values normalized to SPI content
Description: A number of formulations of SPI and PSLs were prepared and their in vitro anti-HIV activity determined by the National Cancer Institute at the National Institutes of Health, Bethesda, Md., using the method of Gustafson et al, J. Nat. Can. Inst., 81(16), 1254-1258 (1989). Varying concentrations of each formulation were mixed with cultured human lymphoblastoid cells, then cocultivated with host cells chronically infected with HIV-1 virus at 37° C. After 7 days, the cell culture is incubated with a mixture of tetrazolium salt XTT and phenazine methylsulfate for 4 hours. […] Formazan absorbs visible light at 450 nm. Therefore, the amount of formazan produced is a direct measurement of cell viability and, consequently, an estimate of the anti-HIV activity of each formulation. Formazan production in normal, uninfected cells is labelled as control.
In particular, the following compositions were assayed for anti-HIV activity. The data and effective concentration (ED50), i.e., the minimum concentration that protects 50% of the cells against infection, of each composition are summarized in FIGS. 5-7 and the results summarized in Table 3. Control values were obtained by incubating lymphoblastoid cells with each formulation in the absence of HIV. […]

Compound	behavior on addition of water (in words) [1]	surface activity (in words) ([1]; surface tension measurements, compared with SPI)	EC50 (HIV-1 virus) [µg/mL]
phosphatidylinositol [PI]	formation of phosphatidylinositol liposomes	no similar surface activity	
CC(C)Nc1cccnc1N1CCN(C(=O)c2cc3cc(NS(C)(=O)=O)ccc3[nH]2)CC1 [Delaviridine, Delaviridine mesylate, reference compound]			0.031
